Experimental data published in article PMC10945556, “Design, Synthesis, and Antifungal Activity of 3-Substituted-2(5H)-Oxaboroles” (ACS Medicinal Chemistry Letters, 2024).
Converted amounts (≈) assume the structure as drawn.

Tests used:
Hemolytic assay = assay type: cell-based; conditions: 50 and 100 μM for 1 h
Procedure: (§1) In general, very little growth inhibition was observed against either Gram-positive or Gram-negative bacterial pathogens. […] The SAR for the antibacterial is dissimilar to that observed for the antifungal properties.
(§2) Figure 3 (A) Cell viability assay against H9c2 cell line at 100 μM for 24 h (normalized to PBS no treatment), (B) Hemolytic assay at 50 and 100 μM for 1 h (normalized to triton X-100 positive control). Error bars in both graphs represent standard error of mean (SEM) of replicates (n = 3).

P. chrysogenum = assay: MIC, dose-dependent solid media assay; assay type: cell-based, Penicillium chrysogenum; conditions: Penicillium chrysogenum
T. mentagrophytes = assay: MIC, dose-dependent solid media assay; assay type: cell-based, Trichophyton mentagrophytes; conditions: Trichophyton mentagrophytes
E. coli [1] = assay: MIC, microbroth dilution; assay type: cell-based, Escherichia coli; conditions: for MIC: Escherichia coli
B. cereus = assay: MIC, microbroth dilution; assay type: cell-based, Bacillus cereus; conditions: Bacillus cereus
[2] = tested on: rat myoblast cells (H9c2); assay: Cell viability assay against H9c2 cell line; assay type: cell-based; conditions: concentrations up to 100 μM, 24 h
Procedure: as §1, §2

P. aeruginosa = assay: MIC, microbroth dilution; assay type: cell-based, Pseudomonas aeruginosa; conditions: Pseudomonas aeruginosa
[3] = tested on: Methicillin resistant Staphylococcus aureus; assay: MIC, microbroth dilution; assay type: cell-based; conditions: Staphylococcus aureus, S. aureus (MRSA)
A. flavus = assay: MIC, dose-dependent solid media assay; assay type: cell-based, Aspergillus flavus; conditions: Aspergillus flavus
S. cerevisiae = assay: MIC, microbroth dilution; assay type: cell-based, Saccharomyces cerevisiae; conditions: Saccharomyces cerevisiae
C. albicans = assay: MIC, microbroth dilution; assay type: cell-based, Candida albicans; conditions: Candida albicans
E. coli [4] = assay: Growth inhibition screen in liquid medium; assay type: cell-based, Escherichia coli; conditions: screen at 50 and 12.5 μg/mL
Excerpt: These included four bacterial pathogens [Bacillus cereus (Gram-positive), Methicillin resistant Staphylococcus aureus (Gram-positive), Pseudomonas aeruginosa (Gram-negative), and Escherichia coli (Gram-negative)], a fungal pathogen (Candida albicans), and a yeast (Saccharomyces cerevisiae). […] Commercially available tavaborole, cycloheximide, and nystatin were also screened as benchmarks. […] In addition, the 3-substituted oxaboroles were screened in a dose-dependent manner on solid media against three spore-forming fungal pathogens: Trichophyton mentagrophytes, Penicillium chrysogenum, and Aspergillus flavus (Figures 2B and S152–S192). The compounds could not be screened for growth inhibition in liquid media against these pathogens due to clumping of the mycelia, which impeded the absorbance readings.

SMILES	hemolytic activity (Hemolytic assay)	MIC (P. chrysogenum) [µg/mL]	MIC (P. chrysogenum; value in parentheses) [µM]	MIC (T. mentagrophytes) [µg/mL]	MIC (T. mentagrophytes; value in parentheses) [µM]	MIC (E. coli [1]) [µg/mL]	MIC (E. coli [1]; value in parentheses) [µM]	MIC (B. cereus) [µg/mL]	MIC (B. cereus; value in parentheses) [µM]	cytotoxic effects against rat myoblast cells (H9c2) [2]	MIC (P. aeruginosa) [µg/mL]	MIC (P. aeruginosa; value in parentheses) [µM]	MIC [3] [µg/mL]	MIC ([3]; value in parentheses) [µM]	MIC (A. flavus) [µg/mL]	MIC (A. flavus; value in parentheses) [µM]	MIC (S. cerevisiae) [µg/mL]	MIC (S. cerevisiae; value in parentheses) [µM]	MIC (C. albicans) [µg/mL]	MIC (C. albicans; value in parentheses) [µM]	other results
CC(C)(C)c1ccc(C2=CCOB2O)cc1 [Compound 6w]	none possessed hemolytic activity	12.5	57.9	> 50	> 232	> 50	> 232	> 50	> 232	none	> 50	> 232	> 50	> 232	> 50	> 232	> 50	> 232	> 50	> 232	–
Cc1cccc(C2=CCOB2O)c1 [Compound 6u]	none possessed hemolytic activity	25	144	42 ± 8	241	> 50	> 287	> 50	> 287	none	> 50	> 287	> 50	> 287	33 ± 8	190	21 ± 4	121	> 50	> 287	–
OB1OCC=C1c1ccc(Cl)cc1 [Compound 6e]	–	12.5	64.4	50	258	20 to 50	129	> 50	> 258	–	> 50	> 258	> 50	> 258	50	258	5.2 ± 1	26.8	> 50	> 258	growth inhibition of E. coli (E. coli [4]): inhibited the growth; MIC EC (E. coli [1]): 25 ± 0 µg/mL (≈ 129 µM)
CCCc1ccc(C2=CCOB2O)cc1 [Compound 6x]	none possessed hemolytic activity	12.5	61.9	50	248	20 to 50	104	> 50	> 248	none	> 50	> 248	> 50	> 248	> 50	> 248	10.4 ± 2	51.5	> 50	> 248	growth inhibition of E. coli (E. coli [4]): inhibited the growth; MIC EC (E. coli [1]): 21 ± 4 µg/mL (≈ 104 µM)
OB1OCC=C1c1ccc2ccccc2c1 [Compound 6q]	none possessed hemolytic activity	12.5	59.5	> 50	> 238	> 50	> 238	> 50	> 238	none	> 50	> 238	> 50	> 238	> 50	> 238	> 50	> 238	> 50	> 238	–
OB1OCC=C1c1cccs1 [Compound 6s]	–	50	301	> 50	> 301	–	253	> 50	> 301	–	> 50	> 301	> 50	> 301	> 50	> 301	10 ± 2	60.2	> 50	> 301	growth inhibition of E. coli (E. coli [4]): inhibited the growth
Cc1ccc(C2=CCOB2O)cc1 [Compound 6t]	none possessed hemolytic activity	21 ± 4	121	> 50	> 287	–	241	> 50	> 287	none	> 50	> 287	> 50	> 287	> 50	> 287	10.4 ± 2	59.8	> 50	> 287	growth inhibition of E. coli (E. coli [4]): inhibited the growth
OB1OCC=C1c1cccc(Br)c1 [Compound 6i]	none possessed hemolytic activity	10.4 ± 2	43.7	25	105	> 50	> 210	> 50	> 210	none	> 50	> 210	> 50	> 210	25	105	50	210	> 50	> 210	–
OB1OCC=C1c1ccc2occc2c1 [Compound 6r]	none possessed hemolytic activity	25	125	50	250	> 50	> 250	> 50	> 250	none	> 50	> 250	> 50	> 250	50	250	5.2 ± 1	26	> 50	> 250	–
OB1OCC=C1c1ccc(Br)cc1 [Compound 6h]	none possessed hemolytic activity	12.5	52.5	33 ± 8	139	20 to 50	88.2	> 50	> 210	none	> 50	> 210	> 50	> 210	33 ± 8	139	12.5	52.5	> 50	> 210	growth inhibition of E. coli (E. coli [4]): inhibited the growth; MIC EC (E. coli [1]): 21 ± 4 µg/mL (≈ 87.9 µM)
OB1OCC=C1c1ccc(F)cc1 [Compound 6b]	–	25	140	> 50	> 281	–	236	> 50	> 281	–	> 50	> 281	> 50	> 281	> 50	> 281	10.4 ± 2	58.4	> 50	> 281	growth inhibition of E. coli (E. coli [4]): inhibited the growth
